Laboratory results reported in ChEMBL document CHEMBL1268897, “Discovery and optimization of adamantyl carbamate inhibitors of 11β-HSD1” (Bioorg Med Chem Lett, 2010).

Biological target: T1, 11-beta-hydroxysteroid dehydrogenase 1 (Homo sapiens, UniProt P28845)
Test: Inhibition of recombinant 11betaHSD1 expressed in CHO cells assessed as [3H]-cortisone to [3H]-cortisol by microscintillation plate reader
Type: cell-based
Details: not given

T1 sequence (P28845 whole entry): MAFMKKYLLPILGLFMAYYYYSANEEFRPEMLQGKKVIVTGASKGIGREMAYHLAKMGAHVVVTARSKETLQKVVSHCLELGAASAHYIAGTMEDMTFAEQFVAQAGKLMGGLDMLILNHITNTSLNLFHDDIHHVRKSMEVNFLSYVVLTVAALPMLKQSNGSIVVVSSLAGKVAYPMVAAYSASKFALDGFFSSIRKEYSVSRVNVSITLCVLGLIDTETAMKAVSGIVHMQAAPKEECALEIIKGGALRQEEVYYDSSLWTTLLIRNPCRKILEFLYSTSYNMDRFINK

| IC50 [nM] | Structure (SMILES) |
| --- | --- |
| 98 | CC(C)(C)OC(=O)N[C@@H]1CCN(C(=O)O[C@H]2C3CC4CC2C[C@](C(C)(C)O)(C4)C3)C1 |
| 20.7 | Cc1cc(N[C@@H]2CCN(C(=O)O[C@H]3C4CC5CC3C[C@](C(N)=O)(C5)C4)C2)nc(C)n1 |

Continued, molecule first:

| Structure (SMILES) | IC50 [nM] |
| --- | --- |
| CC(C)(C)CC(=O)N[C@@H]1CCN(C(=O)OC2C3CC4CC(C3)CC2C4)C1 (stereo not given in full) | 68 |
| CC(C)(C)OC(=O)N[C@@H]1CCN(C(=O)O[C@H]2C3CC4CC2C[C@](C(N)=O)(C4)C3)C1 | 3.4 |
| CC(C)(C)OC(=O)N[C@H]1CCN(C(=O)O[C@H]2C3CC4CC2C[C@](C(N)=O)(C4)C3)C1 | 4.4 |

Biological target: T1, 11-beta-hydroxysteroid dehydrogenase 1
Test: Inhibition of 11betaHSD1 in human platelet assessed as [3H]-cortisone to [3H]-cortisol by microscintillation plate reader
Details: not given

| Structure (SMILES) | IC50 [nM] |
| --- | --- |
| CC(C)(C)OC(=O)N[C@@H]1CCN(C(=O)O[C@H]2C3CC4CC2C[C@](C(C)(C)O)(C4)C3)C1 | > 100 |
| CC(C)(C)OC(=O)N[C@@H]1CCN(C(=O)O[C@H]2C3CC4CC2C[C@](C(N)=O)(C4)C3)C1 | 7.5 |
| CC(C)(C)OC(=O)N[C@H]1CCN(C(=O)O[C@H]2C3CC4CC2C[C@](C(N)=O)(C4)C3)C1 | 17.6 |
| Cc1cc(N[C@@H]2CCN(C(=O)O[C@H]3C4CC5CC3C[C@](C(N)=O)(C5)C4)C2)nc(C)n1 | > 100 |

Biological target: T2, Bile acid receptor (Homo sapiens, UniProt Q96RI1)
T2 sequence (Q96RI1 whole entry): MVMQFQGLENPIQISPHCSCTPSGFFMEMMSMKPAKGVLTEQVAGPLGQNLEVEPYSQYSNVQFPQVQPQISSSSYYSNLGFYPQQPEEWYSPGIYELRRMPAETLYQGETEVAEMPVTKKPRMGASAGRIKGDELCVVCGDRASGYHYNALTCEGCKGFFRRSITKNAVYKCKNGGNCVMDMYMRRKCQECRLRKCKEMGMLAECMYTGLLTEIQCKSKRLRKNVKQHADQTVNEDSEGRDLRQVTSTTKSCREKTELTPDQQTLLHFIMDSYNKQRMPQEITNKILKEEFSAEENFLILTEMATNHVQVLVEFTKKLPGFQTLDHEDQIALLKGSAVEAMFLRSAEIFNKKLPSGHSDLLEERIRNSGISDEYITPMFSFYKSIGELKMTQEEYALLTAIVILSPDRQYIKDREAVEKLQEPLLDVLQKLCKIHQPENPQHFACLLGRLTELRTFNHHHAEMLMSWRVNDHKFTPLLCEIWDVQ
Test: Activity against FXR
Details: not given

| Structure (SMILES) | EC50 [µM] |
| --- | --- |
| CC(C)(C)OC(=O)N[C@@H]1CCN(C(=O)O[C@H]2C3CC4CC2C[C@](C(N)=O)(C4)C3)C1 | > 10 |

Biological target: T3, Glucocorticoid receptor (Homo sapiens, UniProt P04150)
T3 sequence (P04150 whole entry): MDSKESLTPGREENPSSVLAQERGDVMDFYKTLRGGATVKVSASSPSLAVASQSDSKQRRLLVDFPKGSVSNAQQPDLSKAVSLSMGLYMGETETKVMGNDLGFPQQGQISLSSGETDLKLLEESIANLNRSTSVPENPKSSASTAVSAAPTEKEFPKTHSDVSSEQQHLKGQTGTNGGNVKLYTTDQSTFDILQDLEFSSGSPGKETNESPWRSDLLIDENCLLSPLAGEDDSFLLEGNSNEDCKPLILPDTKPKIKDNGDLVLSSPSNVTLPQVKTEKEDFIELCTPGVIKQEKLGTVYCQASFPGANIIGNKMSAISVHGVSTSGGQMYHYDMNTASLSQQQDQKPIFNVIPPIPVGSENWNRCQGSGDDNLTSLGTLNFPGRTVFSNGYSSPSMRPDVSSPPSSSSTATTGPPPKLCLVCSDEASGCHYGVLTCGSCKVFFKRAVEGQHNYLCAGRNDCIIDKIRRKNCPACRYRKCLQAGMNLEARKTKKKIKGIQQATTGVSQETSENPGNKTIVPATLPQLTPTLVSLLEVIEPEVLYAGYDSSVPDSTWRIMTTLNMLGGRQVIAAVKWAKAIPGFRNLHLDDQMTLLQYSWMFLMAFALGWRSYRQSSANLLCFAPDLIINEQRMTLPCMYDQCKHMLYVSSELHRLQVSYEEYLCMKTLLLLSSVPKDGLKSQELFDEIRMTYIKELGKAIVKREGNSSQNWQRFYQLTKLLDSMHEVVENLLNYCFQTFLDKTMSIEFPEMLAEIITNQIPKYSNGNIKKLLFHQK
Test: Activity against GR
Details: not given

| Structure (SMILES) | EC50 [µM] |
| --- | --- |
| CC(C)(C)OC(=O)N[C@@H]1CCN(C(=O)O[C@H]2C3CC4CC2C[C@](C(N)=O)(C4)C3)C1 | > 10 |

Biological target: Cytochrome P450 3A4 (Homo sapiens, UniProt P08684)
Test: Inhibition of CYP3A4
Type: ADME
Details: not given

Sequence of Cytochrome P450 3A4 (P08684 whole entry): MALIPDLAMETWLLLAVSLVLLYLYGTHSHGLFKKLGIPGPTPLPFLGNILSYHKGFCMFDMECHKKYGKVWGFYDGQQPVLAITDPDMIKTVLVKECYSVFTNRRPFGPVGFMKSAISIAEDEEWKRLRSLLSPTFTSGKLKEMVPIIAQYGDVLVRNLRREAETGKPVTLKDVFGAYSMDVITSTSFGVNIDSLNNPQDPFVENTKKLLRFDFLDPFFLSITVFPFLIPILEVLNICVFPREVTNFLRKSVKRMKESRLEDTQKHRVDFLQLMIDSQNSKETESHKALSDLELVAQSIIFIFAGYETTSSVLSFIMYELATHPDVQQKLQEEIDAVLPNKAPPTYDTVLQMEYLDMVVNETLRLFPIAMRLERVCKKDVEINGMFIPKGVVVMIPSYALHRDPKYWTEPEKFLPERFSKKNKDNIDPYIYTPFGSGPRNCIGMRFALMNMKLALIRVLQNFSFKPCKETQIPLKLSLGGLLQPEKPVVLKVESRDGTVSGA

| Structure (SMILES) | IC50 [µM] |
| --- | --- |
| CC(C)(C)OC(=O)N[C@@H]1CCN(C(=O)O[C@H]2C3CC4CC2C[C@](C(N)=O)(C4)C3)C1 | > 30 |

Biological target: Cytochrome P450 2C9 (Homo sapiens, UniProt P11712)
Test: Inhibition of CYP2C9
Type: ADME
Details: not given

Sequence of Cytochrome P450 2C9 (P11712 whole entry): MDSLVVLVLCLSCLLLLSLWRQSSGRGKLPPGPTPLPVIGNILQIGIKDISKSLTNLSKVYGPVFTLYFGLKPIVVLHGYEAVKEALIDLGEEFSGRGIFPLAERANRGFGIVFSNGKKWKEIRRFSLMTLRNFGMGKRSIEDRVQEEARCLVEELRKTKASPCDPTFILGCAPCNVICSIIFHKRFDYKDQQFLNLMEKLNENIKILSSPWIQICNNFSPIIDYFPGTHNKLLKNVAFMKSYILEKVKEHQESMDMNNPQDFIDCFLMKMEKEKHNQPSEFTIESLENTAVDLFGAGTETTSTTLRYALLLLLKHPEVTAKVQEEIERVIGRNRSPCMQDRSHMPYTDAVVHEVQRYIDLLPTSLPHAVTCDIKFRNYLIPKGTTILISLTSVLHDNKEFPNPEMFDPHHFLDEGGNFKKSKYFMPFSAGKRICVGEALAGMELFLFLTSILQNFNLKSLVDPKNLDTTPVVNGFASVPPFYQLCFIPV

| Structure (SMILES) | IC50 [µM] |
| --- | --- |
| CC(C)(C)OC(=O)N[C@@H]1CCN(C(=O)O[C@H]2C3CC4CC2C[C@](C(N)=O)(C4)C3)C1 | > 30 |

Biological target: Cytochrome P450 2D6 (Homo sapiens, UniProt P10635)
Test: Inhibition of CYP2D6
Type: ADME
Details: not given

Sequence of Cytochrome P450 2D6 (P10635 whole entry): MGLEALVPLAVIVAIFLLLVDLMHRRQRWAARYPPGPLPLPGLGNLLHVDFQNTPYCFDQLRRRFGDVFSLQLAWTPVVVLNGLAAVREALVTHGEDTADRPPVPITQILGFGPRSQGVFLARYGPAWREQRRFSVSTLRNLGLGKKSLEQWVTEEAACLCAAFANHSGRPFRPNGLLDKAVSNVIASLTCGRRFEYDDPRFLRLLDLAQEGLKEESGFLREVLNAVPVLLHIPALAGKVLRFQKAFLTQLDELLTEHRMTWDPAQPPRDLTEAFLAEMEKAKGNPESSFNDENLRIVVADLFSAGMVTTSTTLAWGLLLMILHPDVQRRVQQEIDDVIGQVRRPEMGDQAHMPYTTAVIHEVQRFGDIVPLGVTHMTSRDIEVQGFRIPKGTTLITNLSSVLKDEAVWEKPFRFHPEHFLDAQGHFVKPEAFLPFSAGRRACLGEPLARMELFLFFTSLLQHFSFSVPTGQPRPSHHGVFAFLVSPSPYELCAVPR

| Structure (SMILES) | IC50 [µM] |
| --- | --- |
| CC(C)(C)OC(=O)N[C@@H]1CCN(C(=O)O[C@H]2C3CC4CC2C[C@](C(N)=O)(C4)C3)C1 | > 30 |

Test system: not listed separately
Test: in vitro
Details: rat, liver microsomes

| Structure (SMILES) | half-life [min] |
| --- | --- |
| CC(C)(C)OC(=O)N[C@@H]1CCN(C(=O)O[C@H]2C3CC4CC2C[C@](C(N)=O)(C4)C3)C1 | 30 |
